Test results published in patent publication US10526327B2, “Histone demethylase inhibitors” (CELGENE QUANTICEL RESEARCH, INC., priority 2013, dated 2020).

Assays:
Jarid1B = biological target: T1, Jarid1B (Homo sapiens, UniProt Q9UGL1); assay: Jarid1B in vitro enzyme inhibition assay (TR-FRET); format: biochemical
T1 construct: purchased BPS Bioscience or custom made by MolecularThroughput 50121
T1 sequence (Q9UGL1 2-751): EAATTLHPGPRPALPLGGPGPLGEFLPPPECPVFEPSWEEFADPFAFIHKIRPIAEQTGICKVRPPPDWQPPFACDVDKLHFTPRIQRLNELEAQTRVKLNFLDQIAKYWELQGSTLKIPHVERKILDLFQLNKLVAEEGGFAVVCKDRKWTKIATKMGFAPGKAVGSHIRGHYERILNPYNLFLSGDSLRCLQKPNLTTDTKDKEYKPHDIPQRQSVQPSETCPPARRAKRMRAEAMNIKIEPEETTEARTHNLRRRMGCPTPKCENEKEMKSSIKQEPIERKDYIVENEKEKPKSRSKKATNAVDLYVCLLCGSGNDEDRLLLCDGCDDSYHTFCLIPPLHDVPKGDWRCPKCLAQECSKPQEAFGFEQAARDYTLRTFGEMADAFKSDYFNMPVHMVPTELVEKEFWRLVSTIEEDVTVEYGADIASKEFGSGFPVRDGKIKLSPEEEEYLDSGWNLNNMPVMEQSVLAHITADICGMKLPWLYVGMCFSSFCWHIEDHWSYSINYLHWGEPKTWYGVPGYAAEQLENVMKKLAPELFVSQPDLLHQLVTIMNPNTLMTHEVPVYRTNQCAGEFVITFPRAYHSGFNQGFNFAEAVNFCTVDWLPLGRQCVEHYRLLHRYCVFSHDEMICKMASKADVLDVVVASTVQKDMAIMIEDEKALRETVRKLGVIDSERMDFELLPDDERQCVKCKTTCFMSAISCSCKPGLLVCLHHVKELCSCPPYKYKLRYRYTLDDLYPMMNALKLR
In short: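 Jarid1B (AA 2-751, baculovirus-expressed) at 0.8 nM with 300 nM biotin-H3K4me3 peptide and 2 μM α-ketoglutarate in HEPES pH 7.3 with ascorbate and Fe(II), 30 min at room temperature. Stopped with EDTA; H3K4me1-2 product detected by TR-FRET (665/615 ratio) and IC50 fitted from 11-point dilutions.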

JMJD2C = biological target: T2, JMJD2C (Homo sapiens, UniProt Q9H3R0); assay: JMJD2C in vitro enzyme inhibition assay (TR-FRET); format: biochemical
T2 construct: purchased BPS Bioscience 50105
T2 sequence (Q9H3R0 2-372): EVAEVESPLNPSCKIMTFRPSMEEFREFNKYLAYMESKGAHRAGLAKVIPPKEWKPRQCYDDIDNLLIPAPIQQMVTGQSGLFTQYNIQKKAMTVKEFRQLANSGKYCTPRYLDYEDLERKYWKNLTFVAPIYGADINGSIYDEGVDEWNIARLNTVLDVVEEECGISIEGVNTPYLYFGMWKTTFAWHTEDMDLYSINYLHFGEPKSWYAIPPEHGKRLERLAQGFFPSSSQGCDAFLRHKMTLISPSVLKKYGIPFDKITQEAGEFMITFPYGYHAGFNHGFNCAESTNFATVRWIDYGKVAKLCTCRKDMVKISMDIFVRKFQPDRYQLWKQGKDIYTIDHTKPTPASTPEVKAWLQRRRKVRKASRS
In short: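 Baculovirus-expressed human JMJD2C (AA 2-372) at 0.3 nM demethylated 300 nM biotin-H3K9me3 peptide with 2 μM alpha-ketoglutarate in HEPES pH 7.3 containing ascorbate and Fe(II), 30 min at room temperature. EDTA-stopped product was read by TR-FRET with Eu-anti-H3K9me2 and streptavidin-APC; 665/615 ratios from 11-point dilutions gave IC50.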

IC50 (Jarid1B) | IC50 (JMJD2C) | SMILES
≤ 0.1 µM | ≤ 0.1 µM | O=C(c1ccccc1)N1CCC[C@H](n2cc(Oc3nc(O)c4ccncc4n3)cn2)C1 [Example 167, 2-({1-[(3S)-1-benzoylpiperidin-3-yl]-1H-pyrazol-4-yl}oxy)pyrido[3,4-d]pyrimidin-4-ol]
≤ 0.1 µM | ≤ 0.1 µM | Oc1nc(Oc2cnn([C@H]3CCCN(Cc4ccccc4)C3)c2)nc2cnccc12 [Example 168, 2-({1-[(3S)-1-benzylpiperidin-3-yl]-1H-pyrazol-4-yl}oxy)pyrido[3,4-d]pyrimidin-4-ol]
0.1 to 1 µM | ≤ 0.1 µM | Oc1nc(OCc2ccccc2Cl)nc2cnccc12 [Example 171, 2-[(2-chlorophenyl)methoxy]pyrido[3,4-d]pyrimidin-4-ol]
0.1 to 1 µM | ≤ 0.1 µM | Oc1nc(OC(c2ccccc2)C(F)(F)F)nc2cnccc12 (stereo not drawn) [Example 176, 2-(2,2,2-trifluoro-1-phenylethoxy)pyrido[3,4-d]pyrimidin-4-ol]

Continued, compound first:

SMILES | IC50 (Jarid1B) | IC50 (JMJD2C)
Oc1nc(OCc2ccc(C(F)(F)F)cc2)nc2cnccc12 [Example 170, 2-{[4-(trifluoromethyl)phenyl]methoxy}pyrido[3,4-d]pyrimidin-4-ol] | 1 to 10 µM | 1 to 10 µM
Oc1nc(OCc2c(Cl)cccc2Cl)nc2cnccc12 [Example 172, 2-[(2,6-dichlorophenyl)methoxy]pyrido[3,4-d]pyrimidin-4-ol] | 1 to 10 µM | 1 to 10 µM
Oc1nc(OCc2cccc(Cl)c2Cl)nc2cnccc12 [Example 173, 2-[(2,3-dichlorophenyl)methoxy]pyrido[3,4-d]pyrimidin-4-ol] | 1 to 10 µM | ≤ 0.1 µM
Oc1nc(OCCc2ccc(Cl)cc2)nc2cnccc12 [Example 174, 2-[2-(4-chlorophenyl)ethoxy]pyrido[3,4-d]pyrimidin-4-ol] | ≤ 0.1 µM | 0.1 to 1 µM
Oc1nc(OCCc2ccc(Cl)c(Cl)c2)nc2cnccc12 [Example 175, 2-[2-(3,4-dichlorophenyl)ethoxy]pyrido[3,4-d]pyrimidin-4-ol] | 1 to 10 µM | ≤ 0.1 µM
